Measured values reported in US20130225694A1, “COMPOSITIONS AND METHODS OF INHIBITING RETINAL DEGENERATION” (Oklahoma Medical Research Foundation, priority 2012, published 2013).
Read-outs that look alike come from different tables or passages of the source.

Key:
[1] = tested on: Rat Retina; assay: Light-induced retinal degeneration in rats, systemic (IP) nitrone; ERG and ONL histology
Experimental: Consistent with previous publications (1-2,5), a dose of 50 mg/kg PBN and S-PBN dissolved in saline was chosen for intraperitoneal injection in the rats in the treatment group. An equal volume of saline was injected into control rats.
A light-stress paradigm of 2,700 lux for 6 hours was used to test the effect of PBN at different time points before (0.5 hour, 3 hours, 6 hours, 12 hours, 16 hours, and 24 hours) or after (0.5 hour and 3 hours) light exposure. The effect of S-PBN was tested using the same dose and protocol of PBN at 0.5 hours before light exposure.
Electroretinography—After light exposure, rats were returned to their dim cyclic light (5-10 lux) environment for 7 days before ERG recordings were performed. Flash ERGs were recorded with the Diagnosys Espion E2 ERG System (Diagnosys, LLC, Lowell, Mass.). Rats were maintained in total darkness overnight and prepared for ERG recording under dim red light. They were anesthetized with ketamine (120 mg/kg body weight) and xylazine (6 mg/kg body weight) intramuscularly (IM). One drop of 10% (v/v) phenylephrine was applied to the cornea to dilate the pupil, and one drop of 0.5% (v/v) proparacaine HCl was applied for local anesthesia. Rats were kept on a heating pad at 37° C. during recordings. A gold electrode was placed on the cornea, a reference electrode was positioned in the mouth, and a ground electrode was placed on the foot; rats were then placed inside a Ganzfeld illuminating sphere. Responses were differentially amplified, averaged, and stored. For the assessment of rod photoreceptor function (scotopic ERG), five strobe flash stimuli were presented at flash intensities at −2.3, −1.3, 0.7, and 2.7 log cd·s/m^2. The amplitude of the a-wave was measured from the pre-stimulus baseline to the a-wave trough. The amplitude of the b-wave was measured from the trough of the a-wave to the peak of the b-wave. For the evaluation of cone function (photopic ERG), a strobe flash stimulus (3.3 log cd·s/m^2) was presented to dilated, light-adapted (5 minutes at 1.7 log cd·s/m^2) rats. The amplitude of the cone b-wave was measured from the trough of the a-wave to the peak of the b-wave.
Histology—After ERG recordings, rats were killed by carbon dioxide asphyxiation for light microscopic evaluation of retinal structure. Immediately after death, eyes were excised, placed in fixative (4% (w/v) paraformaldehyde, 2% (v/v) trichloroacetic acid, 20% (v/v) isopropyl alcohol, 2% (v/v) zinc chloride, and 72% (v/v) distilled water), and embedded in paraffin. Sections of 5 μm were cut along the vertical meridian through the optic nerve and stained with hematoxylin and eosin (H&E).
The PBN derivatives were injected intraperitoneally (IP) into albino SD rats at 50 mg/kg body weight at 0.5 hours before the start of light-damage exposure at 2,700 lux for 6 hours. After the exposure, the rats were moved to their dim cyclic room to recover for a week. Retinal damage/protection was assessed by functional analysis by ERG and structural analysis of histological sections. Dark adapted (12 hour) and Light adapted (for 2 hour) retinas were utilized as controls.

[2] = tested on: rhodopsin; assay: Rhodopsin regeneration after topical eye drops in mice; type: in vivo, Balb/c mice
Experimental: Panel A: Application scheme and harvesting of the eye. 3 h group received 2 applications and 6 h group received 3 applications. Panel B: Rhodopsin content was measured as pmole/eye. In 1 h in the dark, untreated eyes (NT-LA 1 h DA, no treatment-light adapted followed by 1 hour dark adaptation) and vehicle-treated eyes recovered 75-80% rhodopsin [dark-adapted (DA) control is 100%], whereas 3 h PBN recovered only 43% and 6 h PBN only 29%. (***P<0.0001 compared to vehicle, n=8; ##p<0.005 between 3 h and 6 h group, n=8).
An eye drop formulation was used with various absorption enhancers for topical application of PBN to mouse eyes. […] One hour dark adaptation followed by light causes 75-80% recovery of bleachable rhodopsin in the Balb/c mice (FIG. 18B, NT-LA 1 h DA). The eye drop without PBN (vehicle) had no effect on rhodopsin regeneration (FIG. 18B, vehicle).
Eye drop formulations were prepared as described in Example 7 and contained 5% or 10% of a PBN derivative. The eye drop formulations were applied to Balb/c mice by the 6 h group application scheme shown in FIG. 18A, in which the eye drops were applied at 6, 3, and 0 h before dark adaptation. The eye drops were applied to completely light-adapted mouse eyes, and the mice were then moved to the dark for 1 h to allow the regeneration of bleachable rhodopsin. One hour dark adaptation followed by light causes […] recovery of bleachable rhodopsin in untreated mice (00, No Treatment). The eye drop without any nitrones (vehicle) had no effect on rhodopsin regeneration (000, vehicle).

[3] = tested on: rhodopsin; assay: Rhodopsin regeneration after bleach in rats, IP nitrone; type: in vivo, rat; settings: Rattus norvegicus; rats, 50 mg/kg IP, 2 h room light then 2.5 h dark adaptation
Experimental: FIG. 10 graphically illustrates the effects of three PBN analogs of rhodopsin regeneration. Rhodopsin content was measured as nmole/retina following the procedure as in Mandal et al. (J Biol. Chem. 2011. 286 (37):32491-501). After injection with PBN derivatives or vehicles (saline), rats were left in room light for 2 hours (light adapted or LA) and then moved to dark. At 2.5 hours dark adaptation (DA), retinas were harvested. DA-Control, Dark adapted (12 h) control retina without any treatment to show normal rhodopsin content.
Measurement of rhodopsin regeneration—To measure the effect of PBN on the rate of rhodopsin regeneration, dark-adapted rats were injected intraperitoneally with PBN (50 mg/kg) or PBS 0.5 hour prior to a 2 hour bleach in room light (˜400 lux). Immediately following the bleach (time=0 minutes), a group of PBN- and vehicle-treated rats were killed, and retinas were removed and snap frozen. The remaining rats were dark-adapted, and retinas were collected under dim red light at 45, 90, and 180 minutes after the bleach.
Rhodopsin measurements were performed as described previously (2,36) with slight modification. Briefly, under dim red light, each retina was homogenized in 450 μl of buffer containing 10 mM Tris-HCl (pH 7.4), 150 mM NaCl, 1 mM EDTA, 2% (w/v) octylglucoside, and 50 mM hydroxylamine. Homogenates were centrifuged at 16,000 g, and soluble lysates were scanned from 270-800 nm in a spectrophotometer (Ultrospec 3000 UV/Vis Spectrophotometer, GE Healthcare, Piscataway, N.J.). Samples were then bleached under room light for 10 minutes and scanned again. The difference spectra at 500 nm between pre- and post-bleached samples were used to determine rhodopsin content using a molar extinction coefficient of […] (37). The values were normalized to the total lysate volume, and data are presented as rhodopsin content/retina.

[4] = molecular target: T1, RPE65 isomerohydrolase (Bos taurus, UniProt Q28175); assay: In vitro RPE65 isomerohydrolase assay with bovine RPE microsomes (Example 3); type: biochemical
T1 construct: Bovine RPE microsomes were used as a source of the RPE65 protein; from tissue; host or cells: bovine RPE microsomes
Description: In this Example, the effect of several PBN analogs on RPE65 isomerohydrolase activity was investigated in an in vitro assay. The chemical structures of the PBN analogs utilized are described herein above. Bovine RPE microsomes were used as a source of the RPE65 protein and all-trans-[^3H] retinol was a substrate for the isomerohydrolase assay. The produced 11-cis-[^3H] retinol was quantified by normal phase HPLC with flow scintillation analyzer. The inhibition of isomerohydrolase activity was dependent on the PBN analog's concentration.
FIG. 9 also illustrates the calculation of IC50 values for the two difluoro-PBN analogs. IC50 values are the concentration of the inhibitor that inhibits 50% of the enzymatic activity. Therefore, the smaller the IC50 value, the better the drug.

[5] = 50 mg/kg IP 0.5 h before 2,700 lux 6 h, ERG flash 4.0 cd·sec/m^2 (mostly rod function)
[6] = 50 mg/kg IP 0.5 h before 2,700 lux 6 h, ERG flash 400.0 cd·sec/m^2 (rod and cone function)
[7] = 50 mg/kg IP 0.5 h before 2,700 lux 6 h, NLD = 100, Saline LD = 0
[8] = 50 mg/kg IP 0.5 h before 2,700 lux 6 h, histology

T1 sequence (Q28175 whole entry): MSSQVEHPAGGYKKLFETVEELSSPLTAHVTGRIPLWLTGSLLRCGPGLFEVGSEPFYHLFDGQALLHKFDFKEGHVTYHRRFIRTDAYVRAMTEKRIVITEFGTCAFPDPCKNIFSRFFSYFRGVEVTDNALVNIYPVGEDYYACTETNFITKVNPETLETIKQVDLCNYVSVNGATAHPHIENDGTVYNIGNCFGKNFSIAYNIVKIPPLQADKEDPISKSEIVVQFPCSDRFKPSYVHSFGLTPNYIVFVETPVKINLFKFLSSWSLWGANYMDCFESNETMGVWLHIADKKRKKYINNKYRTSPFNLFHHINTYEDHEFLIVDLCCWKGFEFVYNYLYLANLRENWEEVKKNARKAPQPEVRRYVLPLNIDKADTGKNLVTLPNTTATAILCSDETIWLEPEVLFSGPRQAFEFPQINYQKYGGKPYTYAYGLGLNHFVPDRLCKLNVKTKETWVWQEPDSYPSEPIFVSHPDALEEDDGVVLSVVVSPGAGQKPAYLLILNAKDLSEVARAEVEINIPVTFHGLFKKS

Cc1ccc(/C=[N+](\[O-])C(C)(C)C)cc1 [Compound 4, 4-Methylphenyl t-butyl nitrone]
A-Wave value at 4 cd·sec/m^2 [1, 5]: 126.4
B-Wave value at 4 cd·sec/m^2 [1, 5]: 369.9
A-Wave value at 400 cd·sec/m^2 [1, 6]: 191.3
B-Wave value at 400 cd·sec/m^2 [1, 6]: 443.9
% Protection (A-Wave at 4 cd·sec/m^2) [1, 7]: 65.9%
% Protection (A-Wave at 400 cd·sec/m^2) [1, 7]: 63.6%
% Protection (B-Wave at 4 cd·sec/m^2) [1, 7]: 48.1%
% Protection (B-Wave at 400 cd·sec/m^2) [1, 7]: 54.7%
ONL Thickness (μm) Inferior retina [1, 8]: 36.2 ± 1.0 μm
ONL Thickness (μm) Superior retina [1, 8]: 35.2 ± 1.2 μm
protection of retinal function (ERG A- and B-wave) ([1]; 50 mg/kg IP, FIGS. 11-12): protected retinal function significantly
protective effect on retinal photoreceptors compared with PBN ([1]; 50 mg/kg IP, ONL histology (FIGS. 14-16)): slightly lower than that observed for PBN
% Protection (ONL, Inferior retina) ([1]; NLD = 100, Saline LD = 0): 79.7%
% Protection (ONL, Superior retina) ([1]; NLD = 100, Saline LD = 0): 79.1%
% of Rhodopsin recovery ([2]; 5% in eye drop at 6, 3 and 0 h before dark adaptation, LA + 1 h DA, DA control = 100): 32.54%
inhibition of rhodopsin regeneration as eye drop ([2]; eye drop formulation, summary of Table 7): more effective in inhibiting rhodopsin regeneration than PBN
inhibition at 50 mg/kg [3]: 54%
IC50 ([4]; apparent IC50, bovine RPE microsomes, all-trans-[3H] retinol substrate (Table 1), read-out: IC50 Values for the Inhibition of RPE65 Isomerohydrolase Reaction): 100 µM
IC50 ([4]; in vitro RPE65 isomerohydrolase IC50 values repeated in Table 7, read-out: IC50): 100 µM
